This note sets out measurements from patent US11613531B2, “Inhibitors of RHO associated coiled-coil containing protein kinase” (Kadmon Corporation, LLC, priority 2017, dated 2023).

Assay [1] deals with Recombinant ROCK1 (amino acids 1-535) (Homo sapiens (Human), UniProt Q13464). Put plainly: Z′-Lyte kinase assay, ROCK1. The assay is classed as biochemical. To be noted: 9 points 2-fold serial dilution. The procedure, abridged:
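IC50s derive from nonlinear curve fits over a 9-point, 2-fold dilution series, with single-point inhibition at 1 μM expressed relative to DMSO. Activity of truncated human ROCK1 (residues 1-535) and ROCK2 (residues 1-552) measured with the Z′-Lyte kinase format.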

For assay [2], the system named is UUO-induced renal fibrosis in mice. Kind of assay: Unilateral ureteral obstruction (UUO)-induced renal fibrosis model. The conditions noted are these: oral 3 mg/kg BID, 6 mg/kg BID and 10 mg/kg QD, Day 10, Masson's trichrome. In kind it is in vivo. The text has this:
FIG. 11a. ROCK inhibitor is active in a mouse model of renal fibrosis. Representative images of kidney sections stained with Masson's trichrome to visualize collagen and fibrosis in mice treated with ROCK inhibitor in the ureteral obstruction (UUO) induced renal fibrosis mouse model.
FIG. 11b. Quantitation of the decrease in the interstitial fibrosis index in the histopathological analysis of the images from ROCK inhibitor and vehicle treated mice in the UUO induced renal fibrosis mouse model.
Unilateral Ureteral Obstruction (UUO)-Induced Renal Fibrosis Model in Mice
Male C57B/L6 mice were anesthetized with Isoflurane and placed in dorsal recumbency and the abdominal region was shaved and prepared for surgery with alternating scrub wipes of iodine or chlorhexidine scrub and 70% isopropyl alcohol. […] All animals were monitored closely for 3 days. […]
To assess the activity of ROCK inhibitors in modulation of additional organ fibrosis in an in vivo setting, ROCK inhibitor was tested in a UUO model of renal fibrosis. […] The animals were sacrificed on Day 10 following surgery and the extent of fibrosis was determined by histopathological analysis of fixed kidney sections stained with Masson's trichrome. […]
The improvement in the kidney fibrosis following UUO was quantitated based on the individual image scores by a pathologist blinded to the group assignments. […]

In assay [3] the test system is human ACTA2 gene promoter luciferase reporter in NIH3T3 cells. Put plainly: NIH3T3 Acta2-promoter driven-luciferase assay. The assay is classed as cell-based. To be noted: NIH3T3, 24 h, NIH3T3 cells, plus TGFβ1 for 24 hr; read-out: NIH3T3 Acta2-luc, IC50. The procedure, abridged: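 NIH3T3 cells stably carrying a human ACTA2 promoter (−1000-1 bp)-luciferase reporter, grown to confluence, treated 24 hr with compound plus TGFβ1 at 9-point serial dilution. Luciferase read after lysis; IC50 by nonlinear regression.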

Assay [4] relates to ppMlc (T18/S19) levels in A7R5 cells. Put plainly: A7R5 in-cell ELISA (pMLC). The assay is classed as cell-based, Rat. To be noted: Rattus norvegicus, A7R5, A7R5 cells. The procedure, abridged: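 Cellular IC50 came from a nonlinear regression fit of ppMlc (T18/S19) signal, read by colorimetric in-cell ELISA on fixed cells. Rat A7R5 aortic smooth muscle cells had been exposed for 90 min to compounds in 9-point 2-fold serial dilution, 24 h after seeding.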

For orientation: IC50 means the concentration needed to halve the response being measured.

Sequence of Recombinant ROCK1 (amino acids 1-535) (Q13464 1-535): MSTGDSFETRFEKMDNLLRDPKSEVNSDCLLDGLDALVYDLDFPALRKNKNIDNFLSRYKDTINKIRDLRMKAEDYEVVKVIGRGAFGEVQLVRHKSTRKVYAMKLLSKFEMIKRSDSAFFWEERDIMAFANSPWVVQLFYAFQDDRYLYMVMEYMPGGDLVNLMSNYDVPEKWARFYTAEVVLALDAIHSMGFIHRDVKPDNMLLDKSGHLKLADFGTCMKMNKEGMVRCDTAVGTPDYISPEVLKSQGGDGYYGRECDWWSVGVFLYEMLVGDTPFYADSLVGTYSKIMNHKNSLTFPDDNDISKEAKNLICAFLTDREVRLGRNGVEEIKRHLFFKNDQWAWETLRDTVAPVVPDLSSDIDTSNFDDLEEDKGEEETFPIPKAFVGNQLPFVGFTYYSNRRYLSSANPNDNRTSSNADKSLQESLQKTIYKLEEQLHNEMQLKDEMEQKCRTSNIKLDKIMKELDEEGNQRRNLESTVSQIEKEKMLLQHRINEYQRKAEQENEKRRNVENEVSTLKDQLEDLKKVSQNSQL

For the compound `Clc1cnc(N2C3CCC2CNC3)nc1Nc1ccc2[nH]ncc2c1` [Example 192, N-(2-(3,8-diazabicyclo[3.2.1]octan-8-yl)-5-chloropyrimidin-4-yl)-1H-indazol-5-amine], the IC50 in assay [1] was 5 nM; in assay [3], 189 nM; in assay [4] (ppMlc (T18/S19)) it was 98 nM. The “amount of interstitial collagen in the obstructed kidney” value in assay [2] is listed as “significantly lower”. In assay [4] (1 μM compound, read-out: pMLC % inh A7R5 @ [conc]), the inhibition at 1 µM is 53.5%.
